This is an account of results in patent US20240398709A1, “DRY POWDER FOAMABLE FORMULATIONS FOR DELIVERY OF MEDICAMENTS THROUGH THE MUCOSA” (priority 2021, published 2024).

For series [1] the following is noted: after amifostine injection; animal study; cited from earlier work.
For another series, the system named is mouth mucosa cells. Put plainly: Uptake of drug / WR-1065 into mouth mucosa cells after oral rinse. The format is in vivo, human. As for the experimental part:
Specifically, 125 mg of amifostine is provided as an oral rinse. The patient rinses for approximately one minute and thereafter, expels/discards the rinse. The rinse process can be repeated.

The test system of another series is mucositis. Nature of the series: Amifostine oral rinse in a patient subject to chemotherapy (prevention/treatment of mucositis). The format is in vivo, human. Conditions: for safety of administration: 200 mg WR-2721 (10 ml 0.09 M) or 125 mg WR-1065 (10 ml 0.09 M). Here is the method: In this example, a patient is subject to chemotherapy as part of a treatment plan for head and neck cancer. The patient presents multiple squamous cell carcinoma tumors in the throat and larynx. The patient is administered amifostine for use after each chemotherapy session (e.g., for oral rinse within 15 minutes to two hours after chemotherapy).
The amifostine is administered to the patient in the formulation described above (Table 2). […] The patient rinses for approximately one minute and thereafter, expels/discards the rinse. The rinse process can be repeated.

The conditions of series [2]: following intravenous administration; cited from earlier work.
Series [3] deals with epirubicin-induced oral mucositis. Conditions: patients with epirubicin-induced oral mucositis; cited from earlier work.
For series [4] the following is noted: cited from earlier work.

Consider `NCCCNCCS` [WR-1065], for which the “time of maximum tissue concentrations of WR-1065” value in series [1] is on record as “five to fifteen”. Moreover, the “WR-1065 concentration in washed, isolated, vital mouth mucosa cells” value in the series with mouth mucosa cells is recorded as 3.7-19.9 ng/10^5 cells. Also, the safety of administration result with mucositis was “can be safely administered”. Besides, in the series on mucositis (oral rinse), the systemic side-effects result is recorded as “no systemic side-effects are observed” and the tolerability result was “well-tolerated”.
For `NCCCNCCSP(=O)(O)O` [amifostine, S-2-(3-aminopropylamino) ethyl dihydrogen phosphorothioate], the “clearance from the plasma” value in series [2] is “rapidly cleared”. For the same compound, the “difference between patients given amifostine oral rinse and control” value in series [3] is given as “no significant difference”. Also, in the series with mucositis, the safety of administration entry is “can be safely administered”. Also, the “pH of maximal rate of hydrolysis” value in series [4] (hydrolysis of amifostine to WR-1065 and inorganic phosphate) is 3.0. Moreover, the “hydrolysis at neutral pH” value in series [4] (over four hours at room temperature) is “no detectable hydrolysis”. Besides, in series [4] (pH from 1 to 3), the “stability at gastric pH” value is “unstable”.
